Test results published in US10329304B2, “Compounds and methods for inhibition of hedgehog signaling and phosphodiesterase” (Vanderbilt University, priority 2014, dated 2019).
Where two headings read alike, the source gives them in different places.

Legend:
PDE4D = PDE4D (Homo sapiens, UniProt Q08499); assay: PDE4 inhibition assay (PDE4D IC50); assay type: biochemical; settings: Table 8; read-out: PDE4 Inhibition Assay (IC50)
Description: (§1) In vitro PDE profiling and dose-response assays were performed by BPS Biosciences (San Diego, Calif.). Kinetic Mechanism of inhibition studies were conducted by Millipore (St. Louis, Mo.). In brief, the PDE assay measures fluorescent polarization of FAM-AMP as FAM-cAMP is converted to FAM-AMP by PDE), the binding agent.
(§2) A series of dilutions of the test compound were prepared with 10% DMSO in assay buffer and 5 μl of the dilution was added to a 50 μl reaction so that the final concentration of DMSO is 1% in all of reactions. All of the PDE enzymatic reactions were conducted in duplicate at room temperature for 60 minutes in a 50 μl mixture containing PDE assay buffer (10 mM Tris-HCl, pH7.4, 10 mM MaCl2, 0.05% Tween 20), 100 nM FAM-cAMP, a PDE enzyme and a test compound.
After the enzymatic reaction, 100 μl of a binding solution (1:100 dilution of the binding agent, which contains the nano beads that recognize FAM-AMP, with the binding agent diluent) was added to each reaction and the reaction was performed at room temperature for 60 minutes. Fluorescence intensity was measured at an excitation of 485 nm and an emission of 528 nm using a Tecan Infinite M1000 microplate reader. Assays done by Millipore were conducted similarly with changes noted below:
Hedgehog signaling inhibition and PDE4 inhibition of various compounds disclosed herein was assayed as described herein above.

[1] = test system: Hedgehog signaling (Gli-Luc reporter); assay: Hh Gli-Luciferase reporter assay in Shh-Light2 cells; assay type: cell-based, mouse; settings: for EC50: Mus musculus, Shh Light2
Description: For Hh signaling assays, Shh-Light2 cells stably transfected with Gli-Luciferase reporter construct were used along with Shh-conditioned media, as previously described^7. Alternatively, 3 μM purmorphamine or 20 nM Smoothened agonist (SAG) (Santa Cruz Biotechnology, Santa Cruz, Calif.) was used to induce Hh signaling. Reporter cells were seeded in 96-well plates and incubated overnight with the various concentrations of eggmanone and Shh-conditioned media. To assess the effects of overexpression of Gli-2, PDE4D3 and DN-PDE4D3 on Hh signaling, mammalian expression vectors containing these constructs were transfected into Shh-Light2 cells in 96-well plates using Fugene6 (Roche), according to manufacturer's instructions. The transfected or Shh-stimulated cells were incubated overnight with the various concentrations of compound. The cells were then lysed, and cell extracts were subjected to Steady-Glo luciferase assay (Promega) according to manufacturer's instructions. The results were normalized to cell titer, as determined using Cell Titer-Glo luminescence assay (Promega).

[2] = test system: Hedgehog signaling (TM3-Gli-Luc); assay: TM3-Gli-Luc luciferase reporter assay stimulated with 20 nM SAG; assay type: cell-based; settings: Table 9A; read-out: TM3 G8 Luciferase EC 50
Description: TM3-Gli-Luc cells were maintained on sterile 0.1% gelatin (from porcine skin, Type A, prepared in MilliQ water, autoclaved, then sterile-filtered) in 1:1 Dulbecco's Modified Eagle Medium (DMEM)/F12 supplemented with 5% horse serum, 2.5% fetal bovine serum (FBS), and 15 mM HEPES, hereafter referred to as TM3 Culture Medium. For small molecule evaluation, TM3-Gli-Luc cells were assayed on 0.1% gelatin in DMEM/F12 supplemented with 2.5% FBS and 15 mM HEPES, hereafter referred to as TM3Luc Medium. Sufu^−/− cells were maintained in DMEM supplemented with 4.5 g/L D-glucose, L-glutamine, 25 mM HEPES, and 10% FBS, hereafter referred to as D10 FBS. For small molecule evaluation, Sufu^−/− cells were assayed in DMEM supplemented with 4.5 g/L D-glucose, L-glutamine, 25 mM HEPES, and 0.5% FBS, hereafter referred to as D0.5 FBS. All cells were cultured at 37° C. with a 5% CO2 atmosphere.
On the day of cell plating, 96-well plates were coated with 50 μL/well of sterile 0.1% gelatin for 5 minutes then aspirated and replaced with 50 μL/well of TM3 Culture Medium. TM3-Gli-Luc cells were seeded at a density of 5,000 cells/well in TM3 Culture Medium and incubated for 24 hours. A master mix of 20 nM SAG in TM3Luc Medium was prepared, and small molecule solutions were prepared by adding the desired amount of compound from 10 mM DMSO stock to TM3Luc Medium containing 20 nM SAG. Negative control was prepared by adding an equi-volume amount of DMSO as compared to small molecule treated conditions to TM3Luc Medium not containing SAG. Cell plating medium was aspirated and replaced with 100 μL/well of prepared small molecule-containing media, and plates were incubated for 48 hours before proceeding to luciferase activity and cell viability reading.
TM3Luc Medium from compound treated plates was aspirated and replaced with 82 μL/well of Glo Lysis Buffer (Promega, Madison, Wis., USA), and plates were shaken at 300 rpm and room temperature for 12 minutes. Lysate was split between two white 96-well plates, 45 μL/well and 25 μL/well for luciferase reading and cell viability respectively. For luciferase activity monitoring, 45 μL/well of Steady Glo (Promega, Madison, Wis., USA) was added to 45 μL/well of cell lysate, incubated at room temperature for 5 minutes, then luminescence was measured on a Turner Biosystems Modulus Microplate Reader (Sunnyvale, Calif., USA) with an integration time of 0.5 seconds. For cell viability measurement, 25 μL/well of Cell Titer Glo (Promega, Madison, Wis., USA) (prepared by 1:10 dilution with Glo Lysis Buffer) was added to 25 μL/well of cell lysate, incubated at room temperature for 5 minutes, then luminescence was measured as above.
Luciferase activity data (Steady Glo) was divided by corresponding cell viability data (Cell Titer Glo) to arrive at a live cell number-normalized luciferase activity reading. The average of negative control data (DMSO treated) was subtracted from all wells, and percent activity was calculated by dividing all wells by the positive control (SAG treated) average. […] At least two independent assays tested on separate days were averaged to provide EC50±standard error of the mean.

PDE4D3 = molecular target: T1, PDE4D3 (Homo sapiens, UniProt Q08499); assay: In vitro PDE assay; assay type: biochemical
T1 construct: purchased BPS Biosciences (San Diego, Calif.); kinetic studies by Millipore (St. Louis, Mo.)
Description: as §1, §2
After the enzymatic reaction, 100 μl of a binding solution (1:100 dilution of the binding agent, which contains the nano beads that recognize FAM-AMP, with the binding agent diluent) was added to each reaction and the reaction was performed at room temperature for 60 minutes. Fluorescence intensity was measured at an excitation of 485 nm and an emission of 528 nm using a Tecan Infinite M1000 microplate reader. Assays done by Millipore were conducted similarly with changes noted below: […]

Gli1 mRNA = assay: Hh % Inh.: SAG-induced Gli1 expression in C3H10T½ cells (qPCR); assay type: cell-based; settings: Mus musculus, C3H 10T1/2, SAG-induced (100 nM), 24 hours; for inhibition at 1 µM: 1 pM [sic], read-out: C3H10T1/2 qPCR, Gh1 mRNA % Inh., 1 pM; for inhibition at 10 µM: 10 pM [sic], read-out: C3H10T1/2 qPCR, Gh1 mRNA % Inh., 10 pM
Description: Compounds are dosed from 10 mM DMSO stock solutions, and mRNA is isolated after 24 hours of compound treatment. mRNA is reverse transcribed to produce cDNA which is quantified by quantitative polymerase chain reaction (qPCR) in triplicate and levels are normalized to GAPDH levels. Data is presented as percent inhibition compared to positive control (SAG).

zebrafish embryos = assay: Zebrafish embryo phenotypic assay (ZF); assay type: in vivo; settings: wild-type embryonic zebrafish, dosed 5 hpf
Description: All zebrafish experiments were approved by Vanderbilt University Institutional Animal Care and Use Committee. Wild-type zebrafish of AB strain were maintained using standard protocols. Chemical screen for small molecules was performed as previously described. Briefly, pairs of zebrafish were mated, and fertilized eggs were arrayed in 96-well microtiter plates (5 embryos/well) containing 250 μl E3 water. At ˜4-hpf, small molecule library from Vanderbilt High Throughput Screening Facility was added to each well to the final concentration of 5 μM. Embryos were incubated at 28.5° C. until 24 and 48-hpf, when they were examined for gross morphologic changes indicative of disruption in embryonic patterning. A total of ˜30,000 compounds were screened.
ZF refers to wild-type embryonic zebrafish phenotypic assay involving dosing n=˜10 embryos in E3 egg water with compound from either a stock of 1 mM or 10 mM in DMSO at 5 hours post-fertilization and observing at 24, 48, and 72 hours post-fertilization.

[3] = Table 8, read-out: Hh Inhibition Assay (EC50)
[4] = Table 9B, read-out: Shh Light2 Luc EC50

PDE4D, sequence (Q08499 1-673 isoform Q08499-2): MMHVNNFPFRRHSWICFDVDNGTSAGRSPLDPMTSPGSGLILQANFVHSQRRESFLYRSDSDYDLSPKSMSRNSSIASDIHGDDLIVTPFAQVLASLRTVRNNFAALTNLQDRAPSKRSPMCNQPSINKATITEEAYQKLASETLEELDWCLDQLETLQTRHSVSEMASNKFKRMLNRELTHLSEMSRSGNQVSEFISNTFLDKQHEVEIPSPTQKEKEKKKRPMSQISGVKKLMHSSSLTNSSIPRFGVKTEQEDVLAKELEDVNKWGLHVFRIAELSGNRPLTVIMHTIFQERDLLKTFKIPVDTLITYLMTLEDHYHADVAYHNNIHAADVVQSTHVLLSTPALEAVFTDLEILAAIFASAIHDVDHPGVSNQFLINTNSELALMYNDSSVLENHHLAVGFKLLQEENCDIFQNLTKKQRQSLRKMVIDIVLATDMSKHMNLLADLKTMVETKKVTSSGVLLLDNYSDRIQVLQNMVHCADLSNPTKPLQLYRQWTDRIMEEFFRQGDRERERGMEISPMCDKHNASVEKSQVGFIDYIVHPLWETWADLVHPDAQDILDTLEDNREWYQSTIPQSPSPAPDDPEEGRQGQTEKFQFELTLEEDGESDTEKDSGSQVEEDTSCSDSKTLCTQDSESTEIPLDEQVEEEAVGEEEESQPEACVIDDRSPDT
T1 sequence (Q08499 1-673 isoform Q08499-2): as above

Row | SMILES | IC50 (PDE4D) [µM] | EC50 [1, 3] [µM] | further results
1 | C=CCn1c(SCC(=O)N2Cc3ccccc3C2)nc2sc3c(c2c1=O)CCCC3 [Formula (18)] | > 100 |  | Hh Inhibition Assay (EC50, μM) ([1]; Table 8): Inactive
2 | C=C(C)Cn1c(SCC(=O)c2ccccn2)nc2sc3c(c2c1=O)CCCC3 [Formula (15)] | 23 | 15 | 
3 | C=CCn1c(SCC(=O)c2ccccn2)nc2sc3c(c2c1=O)CCCC3 [Formula (16)] | 25 | 20 | 
4 | O=C(CSc1nc2sc3c(c2c(=O)n1CC1CC1)CCCC3)c1cccs1 [JEH-3-039-1] |  |  | EC50 [2]: 2.96 µM; IC50 (PDE4D3; Table 9A): 1 µM; inhibition at 1 µM (Gli1 mRNA): -3.3%; inhibition at 10 µM (Gli1 mRNA): 81.6%
5 | CCn1c(SCC(=O)c2ccc(Cl)cc2)nc2sc3c(c2c1=O)CCC3 [HI113] |  |  | IC50 (PDE4D3; Table 9B): 4.1 µM; EC50 [1, 4]: > 20 µM
6 | C=CCn1c(SCC(=O)N2CCN(C)CC2)nc2sc3c(c2c1=O)CCCC3 [Formula (8)] | 2.08 | 10 | 
7 | C=C(C)Cn1c(SCC(=O)c2ccc(-c3ccccc3)cc2)nc2sc3c(c2c1=O)CCCC3 [Formula (19)] | > 100 |  | Hh Inhibition Assay (EC50, μM) ([1]; Table 8): Inactive
8 | C=CCn1c(SCC(=O)c2ccncc2)nc2sc3c(c2c1=O)CCCC3 [Formula (12)] | 8.2 | 15 | 
9 | C=CCn1c(SCC(=O)c2ccc(OC)cc2)nc2sc3c(c2c1=O)CCCC3 [HI798] |  |  | IC50 (PDE4D3; Table 9B): > 100 µM; EC50 [1, 4]: > 10 µM
10 | C=C(C)Cn1c(SCC(=O)N2CCN(C)CC2)nc2sc3c(c2c1=O)CCCC3 [Formula (7)] | 8.5 | 20 | 
11 | C=C(C)Cn1c(SCC(=O)c2ccncc2)nc2sc3c(c2c1=O)CCCC3 [Formula (11)] | 16 | 10 | 
12 | C=C(C)Cn1c(SCC(=O)c2nccs2)nc2sc3c(c2c1=O)CCCC3 [Formula (9)] | 6.4 | 7.5 | 
13 | C=CCn1c(SCC(=O)N2CCOCC2)nc2sc3c(c2c1=O)CCCC3 [Formula (14)] | > 100 |  | Hh Inhibition Assay (EC50, μM) ([1]; Table 8): Inactive
14 | C=CCn1c(SCC(=O)N2CCCC[C@H]2C)nc2sc3c(c2c1=O)CCCC3 [Formula (6)] | 7.6 | 5 | 
15 | C=CCn1c(SCC(=O)c2nccs2)nc2sc3c(c2c1=O)CCCC3 [Formula (10)] | 27 |  | Hh Inhibition Assay (EC50, μM) ([1]; Table 8): Inactive
16 | C=C(C)Cn1c(SCC(=O)N2CCCC[C@H]2C)nc2sc3c(c2c1=O)CCCC3 [Formula (5)] | 1.2 | 2.5 | 
17 | C=CCn1c(SCC(=O)c2cccs2)nc2sc3c(c2c1=O)CCCC3 [Formula (2)] | > 100 |  | Hh Inhibition Assay (EC50, μM) ([1]; Table 8): Inactive
18 | C=C(C)Cn1c(SCC(=O)N2Cc3ccccc3C2)nc2sc3c(c2c1=O)CCCC3 [Formula (17)] | 46 |  | Hh Inhibition Assay (EC50, μM) ([1]; Table 8): Inactive
19 | C=C(C)Cn1c(SCC(=O)N2CCOCC2)nc2sc3c(c2c1=O)CCCC3 [Formula (13)] | 3.9 | 5 to 20 | 
20 | C=C(C)Cn1c(SCC(=O)c2ccccc2)nc2sc3c(c2c1=O)CCCC3 [Formula (3)] | 1.27 | 3 | 
21 | C=C(C)Cn1c(SCC(=O)c2cccs2)nc2sc3ccccc3c2c1=O [JEH-4-006] |  |  | EC50 [2]: > 50 µM; IC50 (PDE4D3; Table 9A): > 100 µM; inhibition at 1 µM (Gli1 mRNA): 14.3%; inhibition at 10 µM (Gli1 mRNA): 79.3%; EC50 (Gli1 mRNA; read-out: C3H10T1/2 qPCR, Gh1 mRNA EC50): 4.3 µM
22 | O=C(CSc1nc2sc3c(c2c(=O)n1C1CC1)CCN(C(=O)c1ccco1)C3)c1ccccc1 [KYK-1-75] |  |  | EC50 [2]: 3.59 µM; IC50 (PDE4D3; Table 9A): 6.4 µM; ZF Phenotype EC100 (zebrafish embryos): >50 µM
